Reference: patent publication US12364678B2, “Pharmaceutical composition comprising palmitoylethanolamide and L- Acetylcarnitine” (EPITECH GROUP S.P.A., priority 2014, dated 2025)

How the values were obtained:
sciatic nerve ligation [1] = details: 100 mg/kg; cited from earlier work
carrageenan [2] = experiment: Carrageenan (CAR) test, hyperalgesic response, paw withdrawal latency (Plantar Test); format: in vivo, Wistar male rats; details: for lengthening of the retraction time compared to the control: 5 mg/kg, individually administered (FIG. 2b); for increase of latency time after CAR: all time points (FIG. 3b)
Method: The carrageenan (CAR) test was performed according to a protocol that provides intra-plantar injection of carrageenan in rats and administration of the active ingredient orally by gavage. This is a standard inflammation test. The 1% (weight/volume) carrageenan solution (Sigma) was prepared in sterile saline and subsequently kept at 37° C. for 1 hour to obtain complete solubilization. The paw edema was induced in Wistar male rats by injecting 200 μl of carrageenan into the plantar aponeurosis of the right hind paw. Hyperalgesic response to heat was measured at various time points (0, 30 min, 1, 2, 3, 4, 5 and 6 h) in accordance with the method described by Hargreaves et al. (Pain, 32 (1988), 77-88) using the Plantar Test 7371 (Ugo Basile, Italy). In short, the animals were allowed to move freely in an open transparent plastic chamber. After a period of acclimatization, a heat source radiating infrared light (IR 60) was placed under the glass floor and concentrated on the hind paw. When the animal felt pain and withdrew its paw, the source was turned off and the time measured was recorded.

carrageenan [3] = experiment: Carrageenan (CAR) test, paw edema volume by plethysmometer; format: in vivo, Wistar male rats; details: for effect on the formation of the edema by carrageenan (paw volume): 5 mg/kg orally, alone, 30 minutes to 6 hours after carrageenan (FIG. 2a); for reduction of the volume of the legs after CAR: all time points (FIG. 3a)
Method: The carrageenan (CAR) test was performed according to a protocol that provides intra-plantar injection of carrageenan in rats and administration of the active ingredient orally by gavage. This is a standard inflammation test. The 1% (weight/volume) carrageenan solution (Sigma) was prepared in sterile saline and subsequently kept at 37° C. for 1 hour to obtain complete solubilization. The paw edema was induced in Wistar male rats by injecting 200 μl of carrageenan into the plantar aponeurosis of the right hind paw. The increase in size of the treated paw was measured prior to induction and 30 minutes after injection of the inflammatory agent using a plethysmometer (model 7140; Ugo Basile). The subsequent paw size measurements were taken at 60-minute intervals with respect to the first measurement, for a total of 7 measurements. The difference between the values obtained from the treated animals and the control animals was calculated and assessed statistically for all six hours.

sciatic nerve ligation [4] = experiment: Mechanical allodynia after sciatic nerve ligation (neuropathic pain model), Dynamic Plantar Aesthesiometer; format: in vivo, mice of the C57BL/6J strain; details: alone
Method: The experiments were carried out by using male mice of the C57BL/6J strain with a weight ranging between 25 and 30 g; 10 animals per group were used. The animals were anesthetized with sodium pentobarbital (60 mg/kg, i.p.) and subjected to a surgical procedure of sciatic nerve ligation capable of inducing neuropathic pain in accordance with the method described by Bennet and Xie (1988, Pain; 33:87-107). Sham animals were used as a control. The products were administered p.o. with a tube, suspended in 2% CarboxymethylCellulose. The mechanical allodynia was measured by using the Dynamic Plantar Aesthesiometer equipment of the Company Ugo Basile-Varese, Italy. The values in the table are referred to the weight, expressed in grams, to which the animal object of the experiment, subjected thereto, withdraws its paw when feeling pain.

sciatic nerve ligation [5] = details: 10 mg/kg; cited from earlier work

CC(=O)O[C@H](CC(=O)[O-])C[N+](C)(C)C [LAC, L-Acetylcarnitine]
mechanical allodynia (sciatic nerve ligation [1]): decrease the mechanical allodynia
lengthening of the retraction time compared to the control (carrageenan [2]): do not show any effect
increase of latency time after CAR (carrageenan [2]; LAC 3.0 mg/kg oral): did not achieve a significant increase
increase of latency time after CAR (carrageenan [2]; LAC 5.0 mg/kg oral): did not achieve a significant increase
effect on the formation of the edema by carrageenan (paw volume) (carrageenan [3]): does not have a significant effect
reduction of the volume of the legs after CAR (carrageenan [3]; LAC 3.0 mg/kg oral): did not achieve a significant reduction
reduction of the volume of the legs after CAR (carrageenan [3]; LAC 5.0 mg/kg oral): did not achieve a significant reduction
alleviation of the neuropathic pain (mechanical allodynia) (sciatic nerve ligation [4]; 10 mg/kg p.o.): do not cause a significant activity
alleviation of the neuropathic pain (mechanical allodynia) (sciatic nerve ligation [4]; 100 mg/kg p.o.): significant alleviation

CCCCCCCCCCCCCCCC(=O)NCCO [PEA-m, palmitoylethanolamide]
lengthening of the retraction time compared to the control (carrageenan [2]): do not show any effect
effect on the formation of the edema by carrageenan (paw volume) (carrageenan [3]): does not have a significant effect

CCCCCCCCCCCCCCCC(=O)NCCO [PEA-um, palmitoylethanolamide]
alleviation of the neuropathic pain (mechanical allodynia) (sciatic nerve ligation [4]; 5 mg/kg p.o.): do not cause a significant activity
alleviation of the neuropathic pain (mechanical allodynia) (sciatic nerve ligation [4]; 10 mg/kg p.o.): significant alleviation

CCCCCCCCCCCCCCCC(=O)NCCO [palmitoylethanolamide]
effect in the neuropathic pain model (sciatic nerve ligation [5]): particularly relevant effect
